In ChEMBL document CHEMBL2010715, “Verrulactones A and B, new inhibitors of Staphylococcus aureus enoyl-ACP reductase produced by Penicillium verruculosum F375” (Bioorg Med Chem Lett, 2012):
Values after ≈ are worked out from the molar mass of the structure shown. Active and inactive are the calls of the source. The calls are words filed in the database; no cut-off is given here.

Columns and labels:
[1] = test system: Staphylococcus aureus; test: Antibacterial activity against Staphylococcus aureus RN4220; assay type: functional
[2] = (§1) Inhibition of Staphylococcus aureus Fab1
[3] = test system: Staphylococcus aureus; test: as §1
[4] = test system: Bacillus cereus; test: Antibacterial activity against Bacillus cereus KCTC 1661; assay type: functional
[5] = test system: Pseudomonas aeruginosa; test: Antibacterial activity against Pseudomonas aeruginosa KCTC 2004; assay type: functional, organism-based
[6] = test system: Staphylococcus aureus; test: Antibacterial activity against methicillin-resistant Staphylococcus aureus CCARM 3167; assay type: functional
[7] = test system: Escherichia coli; test: Antibacterial activity against Escherichia coli KCTC 1683; assay type: functional, organism-based

SMILES | MIC [1] [µg/mL] | IC50 [2] [nM] | inhibition [3] | MIC [4] [µg/mL] | Activity [5] | MIC [6] [µg/mL] | Activity [7]
COc1cc(O)c2c(=O)oc3cc(O)c(O)c(-c4c(O)c(O)cc5oc(=O)c6c(O)cc(OC)cc6c45)c3c2c1 [VERRULACTONE A] | 8 (≈ 14.6 µM) | 920 | Dose-dependent effect | 8 (≈ 14.6 µM) | inactive | 8 (≈ 14.6 µM) | inactive
COc1cc(O)c2c(=O)oc3c(-c4c(O)c(O)cc5oc(=O)c6c(O)cc(OC)cc6c45)c(O)c(O)cc3c2c1 [VERRULACTONE B] | 16 (≈ 29.3 µM) | 1410 |  |  |  | 16 (≈ 29.3 µM) | 
